ChEMBL document CHEMBL1142509, “Building skeletally diverse architectures on the Indoline Scaffold: the discovery of a chemical probe of focal adhesion kinase signaling networks” (Bioorg Med Chem, 2008)
Active and inactive are the calls of the source. The rule behind the calls is not given here.

Columns and labels:
[1] = target: Focal adhesion kinase 1 (Homo sapiens) (UniProt Q05397); experiment: Inhibition of FAK in human MDA-MB-231M cells assessed as phosphorylated tyrosine 397 levels at 25 uM after 1 hr by Western blot; format: cell-based
Sequence of Focal adhesion kinase 1 (Homo sapiens) (Q05397 2-1052 limits assumed): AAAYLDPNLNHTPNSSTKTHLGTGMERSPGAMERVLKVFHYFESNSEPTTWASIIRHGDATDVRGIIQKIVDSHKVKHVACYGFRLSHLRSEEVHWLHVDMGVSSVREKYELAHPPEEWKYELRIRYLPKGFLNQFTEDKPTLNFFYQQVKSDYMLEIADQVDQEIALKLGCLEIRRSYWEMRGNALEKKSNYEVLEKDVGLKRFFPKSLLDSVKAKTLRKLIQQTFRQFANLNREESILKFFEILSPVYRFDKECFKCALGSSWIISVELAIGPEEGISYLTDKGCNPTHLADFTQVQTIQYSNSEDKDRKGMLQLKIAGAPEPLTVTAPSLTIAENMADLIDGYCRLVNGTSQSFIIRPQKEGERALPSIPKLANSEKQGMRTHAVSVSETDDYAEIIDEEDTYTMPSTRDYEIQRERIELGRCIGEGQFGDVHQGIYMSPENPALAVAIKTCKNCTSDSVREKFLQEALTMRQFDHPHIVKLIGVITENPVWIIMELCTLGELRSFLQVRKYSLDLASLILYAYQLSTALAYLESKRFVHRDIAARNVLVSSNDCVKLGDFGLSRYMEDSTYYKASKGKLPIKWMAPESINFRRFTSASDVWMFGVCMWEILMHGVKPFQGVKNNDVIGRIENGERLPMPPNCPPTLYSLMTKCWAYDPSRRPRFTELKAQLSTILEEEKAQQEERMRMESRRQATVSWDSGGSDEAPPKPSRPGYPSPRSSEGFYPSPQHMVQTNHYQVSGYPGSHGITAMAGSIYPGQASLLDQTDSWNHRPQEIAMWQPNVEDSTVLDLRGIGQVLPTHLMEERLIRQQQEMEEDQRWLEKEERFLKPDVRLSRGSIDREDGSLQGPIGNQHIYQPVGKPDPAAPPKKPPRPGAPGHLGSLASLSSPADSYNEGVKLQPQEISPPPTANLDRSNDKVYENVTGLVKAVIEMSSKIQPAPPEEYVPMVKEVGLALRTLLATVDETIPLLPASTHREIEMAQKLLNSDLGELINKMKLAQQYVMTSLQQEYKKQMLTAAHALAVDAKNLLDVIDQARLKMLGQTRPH

[2] = target: Focal adhesion kinase 1 (Homo sapiens) (UniProt Q05397); experiment: Inhibition of human FAK at 30 uM
[3] = Antiproliferative activity against human MDA-MB-231M cells after 96 hrs by MTT assay; format: functional, cell-based
[4] = system: MDA-MB-231; experiment: Antiinvasive activity against human MDA-MB-231 cells at 25 uM; format: functional, cell-based
[5] = species on record: Homo sapiens; experiment: Inhibition of human MDA-MB-231M cell motility assessed as remaining wound area at 25 uM after 24 hrs by wound healing assay; format: functional

Activity [1]: Active
inhibition [2]: 30%
SMILES: C=CCOC(=O)N1c2ccc(OCCCOC3CCCCO3)cc2C[C@H]1[C@@H](CC=C)OC(C)=O (mixture of isomers)
IC50 [3]: 38.7 µM
Activity [4]: Active
Activity [5]: Active
